# Measurements taken from ChEMBL document CHEMBL4765227, “Hit to lead optimization of a series of N-[4-(1,3-benzothiazol-2-yl)phenyl]acetamides as monoacylglycerol lipase inhibitors with potential anticancer activity” (Eur J Med Chem, 2016).
# Tests used:
# Assay type in all cases: functional
# K562 = test: Growth inhibition of human K562 cells incubated for 48 hrs by sulforhodamine B assay
# MOLT-4 = test: Growth inhibition of human MOLT-4 cells incubated for 48 hrs by sulforhodamine B assay
# SR = test: Growth inhibition of human SR cells incubated for 48 hrs by sulforhodamine B assay
# HOP-92 = test: Growth inhibition of human HOP-92 cells incubated for 48 hrs by sulforhodamine B assay
# NCI-H23 = test: Growth inhibition of human NCI-H23 cells incubated for 48 hrs by sulforhodamine B assay
# NCI-H460 = test: Growth inhibition of human NCI-H460 cells incubated for 48 hrs by sulforhodamine B assay; details: for CC50: read-out: LC50 (the source's name)
# COLO 205 = test: Growth inhibition of human COLO 205 cells incubated for 48 hrs by sulforhodamine B assay
# HCC 2998 = test: Growth inhibition of human HCC 2998 cells incubated for 48 hrs by sulforhodamine B assay; details: for CC50: read-out: LC50 (the source's name)
# HCT-116 = test: Growth inhibition of human HCT-116 cells incubated for 48 hrs by sulforhodamine B assay; details: for CC50: read-out: LC50 (the source's name)
# HT-29 = test: Growth inhibition of human HT-29 cells incubated for 48 hrs by sulforhodamine B assay
# KM12 = test: Growth inhibition of human KM12 cells incubated for 48 hrs by sulforhodamine B assay
# SF-268 = test: Growth inhibition of human SF-268 cells incubated for 48 hrs by sulforhodamine B assay
# SF-539 = test: Growth inhibition of human SF-539 cells incubated for 48 hrs by sulforhodamine B assay
# SNB-19 = test: Growth inhibition of human SNB-19 cells incubated for 48 hrs by sulforhodamine B assay
# LOX IMVI = test: Growth inhibition of human LOX IMVI cells incubated for 48 hrs by sulforhodamine B assay
# Malme-3M = test: Growth inhibition of human Malme-3M cells incubated for 48 hrs by sulforhodamine B assay; details: for CC50: read-out: LC50 (the source's name)
# SK-MEL-28 = test: Growth inhibition of human SK-MEL-28 cells incubated for 48 hrs by sulforhodamine B assay
# SK-MEL-5 = test: Growth inhibition of human SK-MEL-5 cells incubated for 48 hrs by sulforhodamine B assay
# UACC-62 = test: Growth inhibition of human UACC-62 cells incubated for 48 hrs by sulforhodamine B assay
# IGROV-1 = test: Growth inhibition of human IGROV-1 cells incubated for 48 hrs by sulforhodamine B assay; details: for CC50: read-out: LC50 (the source's name)
# OVCAR-3 = test: Growth inhibition of human OVCAR-3 cells incubated for 48 hrs by sulforhodamine B assay
# OVCAR-5 = test: Growth inhibition of human OVCAR-5 cells incubated for 48 hrs by sulforhodamine B assay
# OVCAR-8 = test: Growth inhibition of human OVCAR-8 cells incubated for 48 hrs by sulforhodamine B assay
# NCI/ADR-RES = test: Growth inhibition of human NCI/ADR-RES cells incubated for 48 hrs by sulforhodamine B assay
# SK-OV-3 = test: Growth inhibition of human SK-OV-3 cells incubated for 48 hrs by sulforhodamine B assay
# 786-0 = test: Growth inhibition of human 786-0 cells incubated for 48 hrs by sulforhodamine B assay
# ACHN = test: Growth inhibition of human ACHN cells incubated for 48 hrs by sulforhodamine B assay
# RXF 393 = test: Growth inhibition of human RXF 393 cells incubated for 48 hrs by sulforhodamine B assay
# TK-10 = test: Growth inhibition of human TK-10 cells incubated for 48 hrs by sulforhodamine B assay
# UO-31 = test: Growth inhibition of human UO-31 cells incubated for 48 hrs by sulforhodamine B assay
# PC-3 = test: Growth inhibition of human PC-3 cells incubated for 48 hrs by sulforhodamine B assay; details: for CC50: read-out: LC50 (the source's name)
# DU-145 = test: Growth inhibition of human DU-145 cells incubated for 48 hrs by sulforhodamine B assay
# MCF7 = test: Growth inhibition of human MCF7 cells incubated for 48 hrs by sulforhodamine B assay
# Hs-578T = test: Growth inhibition of human Hs-578T cells incubated for 48 hrs by sulforhodamine B assay
# MDA-MB-468 = test: Growth inhibition of human MDA-MB-468 cells incubated for 48 hrs by sulforhodamine B assay; details: for CC50: read-out: LC50 (the source's name)
structure (smiles),measurement,setting,value
O=C(CNc1c(Cl)cccc1Cl)Nc1ccc(-c2nc3ccccc3s2)cc1,GI50,K562,2.86 µM
same,LC50,K562,> 100 µM
same,TGI,K562,11.5 µM
same,GI50,MOLT-4,1.05 µM
same,LC50,MOLT-4,> 100 µM
same,TGI,MOLT-4,7.43 µM
same,GI50,SR,1.05 µM
same,LC50,SR,> 100 µM
same,TGI,SR,5.33 µM
same,GI50,HOP-92,1.88 µM
same,LC50 (concentration killing 50% of cells),HOP-92,26.7 µM
same,TGI,HOP-92,6.3 µM
same,GI50,NCI-H23,2 µM
same,LC50 (lethal concentration 50%),NCI-H23,17.1 µM
same,TGI,NCI-H23,4.59 µM
same,GI50,NCI-H460,3.36 µM
same,TGI,NCI-H460,12.4 µM
same,CC50,NCI-H460,43 µM
same,GI50,COLO 205,2.1 µM
same,LC50,COLO 205,8.79 µM
same,TGI,COLO 205,4.29 µM
same,GI50,HCC 2998,1.89 µM
same,TGI,HCC 2998,3.56 µM
same,CC50,HCC 2998,6.68 µM
same,GI50,HCT-116,2.14 µM
same,TGI,HCT-116,6.14 µM
same,CC50,HCT-116,29 µM
same,GI50,HT-29,2.01 µM
same,LC50,HT-29,8.66 µM
same,TGI,HT-29,4.17 µM
same,GI50,KM12,2.47 µM
same,LC50 (concentration killing 50% of cells),KM12,22.3 µM
same,TGI,KM12,6.17 µM
same,GI50,SF-268,1.99 µM
same,LC50,SF-268,9.52 µM
same,TGI,SF-268,4.35 µM
same,GI50,SF-539,1.83 µM
same,LC50,SF-539,6.34 µM
same,TGI,SF-539,3.41 µM
same,GI50,SNB-19,2.5 µM
same,LC50,SNB-19,80 µM
same,TGI,SNB-19,9.28 µM
same,GI50,LOX IMVI,1.19 µM
same,LC50,LOX IMVI,6.03 µM
same,TGI,LOX IMVI,2.68 µM
same,GI50,Malme-3M,1.71 µM
same,TGI,Malme-3M,3.43 µM
same,CC50,Malme-3M,6.88 µM
same,GI50,SK-MEL-28,1.8 µM
same,LC50,SK-MEL-28,7.47 µM
same,TGI,SK-MEL-28,3.67 µM
same,GI50,SK-MEL-5,1.43 µM
same,LC50 (50% lethal concentration),SK-MEL-5,5.88 µM
same,TGI,SK-MEL-5,2.9 µM
same,GI50,UACC-62,1.72 µM
same,LC50,UACC-62,8.97 µM
same,TGI,UACC-62,3.92 µM
same,GI50,IGROV-1,1.92 µM
same,TGI,IGROV-1,4.33 µM
same,CC50,IGROV-1,9.73 µM
same,GI50,OVCAR-3,1.81 µM
same,LC50,OVCAR-3,5.79 µM
same,TGI,OVCAR-3,3.24 µM
same,GI50,OVCAR-5,1.92 µM
same,LC50 (concentration killing 50% of cells),OVCAR-5,9.53 µM
same,TGI,OVCAR-5,4.28 µM
same,GI50,OVCAR-8,2.64 µM
same,LC50,OVCAR-8,> 100 µM
same,TGI,OVCAR-8,8.9 µM
same,GI50,NCI/ADR-RES,3.06 µM
same,LC50,NCI/ADR-RES,> 100 µM
same,TGI,NCI/ADR-RES,8.06 µM
same,GI50,SK-OV-3,5.84 µM
same,LC50 (concentration killing 50% of cells),SK-OV-3,> 100 µM
same,TGI,SK-OV-3,50.9 µM
same,GI50,786-0,1.76 µM
same,LC50 (50% lethal concentration),786-0,8.34 µM
same,TGI,786-0,3.83 µM
same,GI50,ACHN,1.82 µM
same,LC50,ACHN,6.63 µM
same,TGI,ACHN,3.47 µM
same,GI50,RXF 393,1.63 µM
same,LC50 (concentration killing 50% of cells),RXF 393,7.27 µM
same,TGI,RXF 393,3.44 µM
same,GI50,TK-10,2.15 µM
same,LC50,TK-10,18.3 µM
same,TGI,TK-10,5.41 µM
same,GI50,UO-31,1.5 µM
same,LC50 (concentration killing 50% of cells),UO-31,8.5 µM
same,TGI,UO-31,3.57 µM
same,GI50,PC-3,1.73 µM
same,TGI,PC-3,3.47 µM
same,CC50,PC-3,6.98 µM
same,GI50,DU-145,3.33 µM
same,LC50 (concentration killing 50% of cells),DU-145,32.2 µM
same,TGI,DU-145,10.4 µM
same,GI50,MCF7,0.0371 µM
same,LC50,MCF7,39.8 µM
same,TGI,MCF7,2.49 µM
same,GI50,Hs-578T,5.58 µM
same,LC50,Hs-578T,> 100 µM
same,TGI,Hs-578T,69.3 µM
same,GI50,MDA-MB-468,0.0251 µM
same,TGI,MDA-MB-468,0.137 µM
same,CC50,MDA-MB-468,4.33 µM
O=C(CNc1ccc(Cl)cc1)Nc1ccc(-c2nc3ccccc3s2)cc1,GI50,K562,2.95 µM
same,LC50,K562,> 100 µM
same,TGI,K562,> 100 µM
same,GI50,MOLT-4,1.25 µM
same,LC50,MOLT-4,> 100 µM
same,TGI,MOLT-4,7.09 µM
same,GI50,SR,1.62 µM
same,LC50,SR,> 100 µM
same,TGI,SR,5.76 µM
same,GI50,HOP-92,2.4 µM
same,LC50 (concentration killing 50% of cells),HOP-92,37.8 µM
same,TGI,HOP-92,8.11 µM
same,GI50,NCI-H23,2.04 µM
same,LC50 (lethal concentration 50%),NCI-H23,21.6 µM
same,TGI,NCI-H23,4.7 µM
same,GI50,NCI-H460,3.73 µM
same,TGI,NCI-H460,13.1 µM
same,CC50,NCI-H460,39.8 µM
same,GI50,COLO 205,2.08 µM
same,LC50,COLO 205,9.08 µM
same,TGI,COLO 205,4.35 µM
same,GI50,HCC 2998,1.9 µM
same,TGI,HCC 2998,3.54 µM
same,CC50,HCC 2998,6.58 µM
same,GI50,HCT-116,1.84 µM
same,TGI,HCT-116,3.91 µM
same,CC50,HCT-116,8.3 µM
same,GI50,HT-29,1.96 µM
same,LC50,HT-29,8.17 µM
same,TGI,HT-29,4 µM
same,GI50,KM12,3.24 µM
same,LC50 (concentration killing 50% of cells),KM12,33.5 µM
same,TGI,KM12,11.1 µM
same,GI50,SF-268,2 µM
same,LC50,SF-268,15 µM
same,TGI,SF-268,4.76 µM
same,GI50,SF-539,1.86 µM
same,LC50,SF-539,7.14 µM
same,TGI,SF-539,3.65 µM
same,GI50,SNB-19,2.81 µM
same,LC50,SNB-19,57.9 µM
same,TGI,SNB-19,10.2 µM
same,GI50,LOX IMVI,1.29 µM
same,LC50,LOX IMVI,5.74 µM
same,TGI,LOX IMVI,2.72 µM
same,GI50,Malme-3M,1.98 µM
same,TGI,Malme-3M,4.22 µM
same,CC50,Malme-3M,8.99 µM
same,GI50,SK-MEL-28,2.03 µM
same,LC50,SK-MEL-28,9.72 µM
same,TGI,SK-MEL-28,4.44 µM
same,GI50,SK-MEL-5,1.57 µM
same,LC50 (50% lethal concentration),SK-MEL-5,6.53 µM
same,TGI,SK-MEL-5,3.2 µM
same,GI50,UACC-62,1.7 µM
same,LC50,UACC-62,19.4 µM
same,TGI,UACC-62,4.22 µM
same,GI50,IGROV-1,1.9 µM
same,TGI,IGROV-1,4.27 µM
same,CC50,IGROV-1,9.59 µM
same,GI50,OVCAR-3,1.85 µM
same,LC50,OVCAR-3,5.88 µM
same,TGI,OVCAR-3,3.3 µM
same,GI50,OVCAR-5,2.26 µM
same,LC50 (concentration killing 50% of cells),OVCAR-5,23.9 µM
same,TGI,OVCAR-5,5.8 µM
same,GI50,OVCAR-8,2.56 µM
same,LC50,OVCAR-8,> 100 µM
same,TGI,OVCAR-8,7.06 µM
same,GI50,NCI/ADR-RES,3.03 µM
same,LC50,NCI/ADR-RES,> 100 µM
same,TGI,NCI/ADR-RES,8.5 µM
same,GI50,SK-OV-3,4.57 µM
same,LC50 (concentration killing 50% of cells),SK-OV-3,> 100 µM
same,TGI,SK-OV-3,61.8 µM
same,GI50,786-0,1.85 µM
same,LC50 (50% lethal concentration),786-0,9 µM
same,TGI,786-0,4.08 µM
same,GI50,ACHN,2.31 µM
same,LC50,ACHN,18.2 µM
same,TGI,ACHN,5.57 µM
same,GI50,RXF 393,1.66 µM
same,LC50 (concentration killing 50% of cells),RXF 393,7.68 µM
same,TGI,RXF 393,3.57 µM
same,GI50,TK-10,2.2 µM
same,LC50,TK-10,21.5 µM
same,TGI,TK-10,5.84 µM
same,GI50,UO-31,1.96 µM
same,LC50 (concentration killing 50% of cells),UO-31,40.3 µM
same,TGI,UO-31,9.79 µM
same,GI50,PC-3,2.01 µM
same,TGI,PC-3,5.13 µM
same,CC50,PC-3,17.9 µM
same,GI50,DU-145,3.34 µM
same,LC50 (concentration killing 50% of cells),DU-145,32.1 µM
same,TGI,DU-145,10.3 µM
same,GI50,MCF7,0.0325 µM
same,LC50,MCF7,> 100 µM
same,TGI,MCF7,2.5 µM
same,GI50,Hs-578T,4.41 µM
same,LC50,Hs-578T,> 100 µM
same,TGI,Hs-578T,37.7 µM
same,GI50,MDA-MB-468,0.0238 µM
same,TGI,MDA-MB-468,0.353 µM
same,CC50,MDA-MB-468,6.19 µM
